What is called melting point is the temperature, or range, at which the solid turns liquid.

Molecules are shown by their SMILES.

The values that follow come from a melting point compilation (Tetko et al.; mined from patent text by program, amines drawn as free bases though some values may be those of a salt).

Regarding `CC1CC(=O)NN=C1c1ccc(NC(=O)c2ccco2)cc1` (centres undefined), the melting point lay in the range of 213 to 216 °C.
The compound `COc1ccc(-c2cc3cc(OC)c(OC)cc3c(C)n2)cc1OC` returned a melting point of 168 to 169 °C.
Next, `Cc1oc(-c2ccc3ccccc3c2)nc1COc1ccc(CCCC#N)cc1`: 149 to 151 °C.
`CC(c1ccc(OCc2ccc(Cl)cc2Cl)cc1)n1ccnc1` (centres undefined) displayed a melting point of 103 to 106 °C.
For the compound `COc1ccc(Nc2nc(Cl)nc(Nc3ccc(OC)c(F)c3)n2)cc1F`, the melting point was found to be 194 °C.
For `Cc1cc(C(=O)N2Cc3ccc(C(=O)N(CCCN(C)C)CCCN(C)C)n3Cc3ccccc32)ccc1-c1ccccc1C(F)(F)F`, the melting point fell in the range of 55 to 64 °C.
Then `Cn1c(CC#N)ccc1C(=O)c1ccc([N+](=O)[O-])cc1`, with 167 to 169 °C; and `CCOC(=O)C(CC)c1ccc(N2Cc3ccccc3C2=N)cc1` (centres undefined), with 157 to 159 °C; and `CC(C)(CNC(=O)COCC(=O)OCOC(=O)Cc1ccccc1Nc1c(Cl)cccc1Cl)SN=O`, with 66 °C.
Consider `CC(=O)c1ccc(C)c(N=C2NCCN2)c1`, for which the melting point fell in the range of 160 to 162 °C.
On to `O=C(O)c1ccc2c(c1)S(=O)c1ccccc1O2` (centres undefined), for which the melting point amounted to 223 °C.
Then `CN(CCC12CC3CC(CC(C3)C1)C2)C(=O)NCCCc1ccncc1`, with 99 to 109 °C.
Consider `CCC(C(=O)C(C)C(O)C(C)CCC1=C(C(=O)O)C(O)=C(C)CC1=[N+]=[N-])C1OC(CC)(C2CCC(O)(CC)C(C)O2)CC1C` (centres undefined), for which the melting point was 137 to 138 °C.
With `COc1ccc(-c2[nH]nc3c2C(=O)c2c(NC(=O)CN4CCSCC4)cccc2-3)cc1`, the melting point came to 298 °C.
Next, `CC(C)(C)OC(=O)[C@H](CCSCc1cn(C(c2ccccc2)(c2ccccc2)c2ccccc2)cn1)NC(=O)OCc1ccccc1`: 183 to 185 °C; `CN1CCN(Cc2nnc3n2-c2ccc(Cl)cc2C(c2ccccc2)=NC3)CC1`: 203 to 206 °C; `CONC(NC(C)=O)C(=O)NCc1ccccc1` (centres undefined): 95 to 97 °C.
For `COc1cc2c(cc1OC)-c1c([N+](=O)[O-])sc(=N)n1CC2`, the melting point fell in the range of 220 to 221 °C.
For `O=C(c1ccc(Cl)cc1)n1cc(CCN=c2sc3ccccc3s2)c2ccccc21`, the melting point was determined as 135 °C.
Then `CN1CCC(NC(=O)c2cccc(Cl)c2)C12CCCCC2` (centres undefined), with 121 to 122 °C; and `Cc1cccc(-c2nc3cccnn3c2-c2ccnc(NC3CCCCC3)c2)c1`, with 169 to 170 °C; and `CC(=O)N1CCc2c([nH]c3ccccc23)C1`, with 240 to 241 °C.
Next, `O=C(Nc1ccc2ccc(Oc3ccccc3)nc2n1)C1CC1`: 190 °C; `CC1(C)CC(=S)Nc2ccc(-c3cccc(F)c3)cc21`: 209 to 211 °C.
For `Cn1ccc2c(-n3cc(C(=O)NC(=N)N)c4cccnc43)ncnc21`, the melting point was over 260 °C.
Next, `OCc1cn(Cc2ccccc2)nc1OCc1ccccc1`: 79 to 80 °C; `CCOc1ccc2nc3[nH]c(=O)[nH]c3cc2c1`: over 320 °C.
Turning to `COc1ccc(-c2cccc(COCCc3cccc(NC(N)=O)c3)c2)cc1`, the melting point lay in the range of 87 to 89 °C.
The compound `COC(CN(C)c1nccc(Oc2ccc(NC(=O)c3cc(F)cc(N4CCCCC4)c3)c3ccccc23)n1)OC` registered a melting point of 135 to 136 °C.
As for `CCOC(=O)Cc1c(C)n(Cc2cccc(C(F)(F)F)c2)c2ccc(OC)cc12`, the melting point was in the range of 95 to 97 °C.
Next, `CC(C)CON=Cc1ccc2c(c1)c1cc(-c3ccc(Cl)cc3Cl)c(=O)n(C)c1n2C`: 100 to 110 °C; `CCOC(=O)C(=O)c1cc(C)c(C(=O)c2ccccc2[N+](=O)[O-])n1C`: 138 to 140 °C; `CCOC(=O)C1Cc2c([nH]c3ccccc23)CN1C(=S)SC` (centres undefined): 139 to 141 °C.
With `Cc1cc(O)c2c(c1O)C(=O)c1ccccc1C2=O`, the melting point was 177 to 178 °C.
